Test results from patent US20030083501A1, “Process for preparing paroxetine HCl which limits formation of pink colored compounds” (priority 2001, published 2003).
Where a name gives a salt, the structure may show the parent alone.

Experiments:
Assay type in all cases: physicochemical
[1] = Visual analysis of the colour of a paroxetine HCl solution; details: 2 mg/ml paroxetine HCl in 0.05M di-Potassium hydrogen phosphate buffer and 35% acetonitrile, standing 20 minutes
Description: One visual analysis can be carried out by preparing a solution of about 2 mg/ml of paroxetine HCl prepared in a mixture of about 0.05M di-Potassium hydrogen phosphate buffer and about 35% of acetonitrile. […] Preferably, the solution of the paroxetine HCl of the present invention is color free for at least about 20 minutes. On the other hand, available commercial products usually produce a pink colored solution under similar conditions. To test the purity of the final product, a 2 mg/ml solution of paroxetine HCl was prepared in a mixture of 0.05M di-Potassium hydrogen phosphate buffer and 35% of acetonitrile.

[2] = HPLC content of the impurity at RRT about 1.5 after storage; details: storage for 4 days at 55° C., UV 285 nm, b52 gives such levels as HPLC area percentage, HCl
From the text: Without being bound by theory, it is believed that impurities in paroxetine hydrochloride play a role in the color change to pink. The level of the impurities in paroxetine that are associated with a color change to pink can be analyzed in two different manners. One approach is a simple visual analysis, i.e., observing if a sample of paroxetine HCl has turned pink. Another approach is to measure the degree of an impurity identified by a high pressure liquid chromatography (“HPLC”) relative retention time (“RRT”) of about 1.5. The different UV-spectrum characteristic of this impurity has linked the impurity to the development of a pink color. […] Purification steps to remove this impurity such as by crystallization, extraction, chromatography or other separation procedures are often ineffective. The paroxetine hydrochloride of the present process is substantially free of impurities associated with a color change to pink, and is less susceptible, if at all, to develop a pink color overtime These impurities include the impurity identified by an HPLC RRT of about 1.5. Retention time refers to the time required for a compound to pass from the point of injection to the detector. […] Detected by U.V. spectroscopy at λ=285 nm.

[3] = Visual analysis of the colour of solid paroxetine HCl during storage; details: storage for at least one month at 55° C.
Description: Another visual analysis can be carried out by observing the color of paroxetine hydrochloride during storage. Preferably, the paroxetine HCl of the present invention is substantially free compounds associated with a pink color for at least four days at a temperature of about 55° C. and a relative humidity of about 60-80%. One of skill in the art can appreciate that the level of the compounds associated with a pink color can vary according to the temperature and other conditions used for storage.
Paroxetine HCl (approximately 4 grams) was dissolved in toluene(40 ml) at reflux. Ascorbic acid (40 mg) and active carbon SX1 (200 mg) were added to the solution and stirred for 5-10 minutes. The solution was then filtered. The filtrate was cooled to 2-4° C., stirred for approximately 1 hour and filtered again to separate a formed precipitate. The solid precipitate was washed with toluene (4 ml) and dried at a temperature of 60° C. under vacuum to give white (color-free) product (3.4 grams). The product was color-free during storage for at least one month at a temperature of 55° C., and yielded solutions (carried out in the same manner as example 1) that were also color-free.

Row | development of a pink color in solution [1] | content of the impurity at RRT about 1.5 after storage [2] | color of the product during storage [3] | Structure (SMILES)
1 | did not develop a pink color | – | – | Fc1ccc([C@@H]2CCNC[C@H]2COc2ccc3c(c2)OCO3)cc1 [Example 1, paroxetine HCl]
2 | – | 0.23 | – | Fc1ccc([C@@H]2CCNC[C@H]2COc2ccc3c(c2)OCO3)cc1 [Example 3, paroxetine HCl]
3 | – | 0.02 | – | Fc1ccc([C@@H]2CCNC[C@H]2COc2ccc3c(c2)OCO3)cc1 [Example 2, paroxetine HCl]
4 | color-free | – | color-free | Fc1ccc([C@@H]2CCNC[C@H]2COc2ccc3c(c2)OCO3)cc1 [Example 5, Paroxetine HCl]
